From PubChem BioAssay (NCI) come the findings set out here.

What all share (assay): growth of human tumour cells (NCI), 48 h
Experiment [1] concerns SF-539 CNS.
For experiment [2], the system named is KM12 colon.
Experiment [3] concerns NCI-H522 lung.
Experiment [4] has as its system UACC-257 melanoma.
For experiment [5], the system named is MDA-MB-435.
In experiment [6] the test system is 786-0 renal.
Experiment [7] has as its system HT29 colon.
Experiment [8] deals with OVCAR-5 ovarian.
Experiment [9] concerns A549 NSCLC.
The subject of experiment [10] is OVCAR-3 ovarian.

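Five concentrations, 48 hours, 96-well plates. Definition used: TGI = concentration required for complete inhibition of growth.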

On to `C[C@H]1C=C2[C@@H]3CC(C)(C(=O)O)CC[C@]3(C)CC[C@]2(C)[C@]2(C)CC[C@H]3C(C)(C)[C@@H](OC(=O)c4cccc5c(=O)c6ccccc6[nH]c45)CC[C@]3(C)[C@@H]12` (stereo not given in full), for which the TGI in experiment [1], in [2], in [3], in experiment [4], in experiment [5] and in experiment [6] was above 100 µM throughout. Moreover, the TGI in experiment [7], in [8], in experiment [9] and in experiment [10] was above 100 µM each time.

On to `CC(C)[C@@H]1ON1C(C)c1ccccc1` (stereo not given in full), for which the TGI in [1], in experiment [2], in [3], in experiment [4], in experiment [5] and in experiment [6] was above 100 µM each time. Further, the TGI in [7], in experiment [8], in experiment [9] and in [10] was above 100 µM each time.

As for `COC(=O)c1c(O)ccc2c1C1(Cc3ccccc3C1=O)C(O)O2` (stereo not given), the TGI is 55.7 µM in [1]; 69.1 µM in [2]; 18.1 µM in experiment [3]; above 100 µM in experiment [4]; 31.1 µM in [5]; 30.2 µM in experiment [6]. Besides, the TGI in [7] is above 100 µM; in [8], 51.7 µM; in experiment [9], 69.9 µM; in experiment [10] it was 43.9 µM.

Take `OC(c1ccc(-c2ccccc2)cc1)C(F)(F)c1nc2ccccc2o1` (stereo not given): the TGI is above 72.3 µM in experiment [1]; above 100 µM in experiment [2]; above 100 µM in experiment [3]; above 100 µM in experiment [4]; above 100 µM in experiment [5]; 74.6 µM in experiment [6]. Further, the TGI in [7], in experiment [8], in experiment [9] and in experiment [10] was above 100 µM in each case.

`Brc1ccc(-c2cn3ccncc3n2)cc1`: the TGI in [1] was above 100 µM; in experiment [2] it was above 100 µM; in experiment [3] it was above 100 µM; in experiment [4], 85.6 µM; in experiment [5], above 100 µM; in experiment [6] it was above 100 µM. For the same molecule, the TGI in experiment [7], in experiment [8], in [9] and in experiment [10] was above 100 µM each time.

Consider `COC(=O)c1c(OC(C)=O)ccc2c1c1c(OC(C)=O)c3ccccc3c(OC(C)=O)c1n2Cc1ccccc1`, for which the TGI in experiment [1] is 4.04 µM; in experiment [2], 5.65 µM; in experiment [3], 3.4 µM; in experiment [4], above 50 µM; in [5], 27.9 µM; in experiment [6], 37.2 µM. Also, the TGI in experiment [7] came to 31.5 µM; in experiment [8], 19.8 µM; in experiment [9], 34.2 µM; in experiment [10], 3.52 µM.

For `CC(=O)OCC1OC(n2c(=O)[nH]c(=O)c3sccc32)C(Br)C1OC(C)=O` (stereo not given), the TGI in experiment [1], in experiment [2], in [3], in experiment [4], in experiment [5] and in experiment [6] was above 100 µM in each case. The TGI in experiment [7], in experiment [8], in [9] and in experiment [10] was above 100 µM each time.

Regarding `Cc1cc(NCCCCCCCNc2cc(C)nc3cc([N+](=O)[O-])ccc23)c2ccc([N+](=O)[O-])cc2n1`, the TGI in experiment [1] worked out at 39.5 µM; in experiment [2], 3.74 µM; in experiment [3], 2.78 µM; in [4], 36.9 µM; in experiment [5] it was 39 µM; in [6] it was 39.3 µM. Also, the TGI in experiment [7] came out at 8.43 µM; in [8] it was 29.8 µM; in [9], 9.41 µM; in experiment [10], 25 µM.

Take `CC(C)(C)c1cc(C2COC(c3cc(C(C)(C)C)c(O)c(C(C)(C)C)c3)CO2)cc(C(C)(C)C)c1O` (stereo not given): the TGI in experiment [1], in experiment [2], in experiment [3], in experiment [4], in experiment [5] and in experiment [6] was above 100 µM throughout. In addition, the TGI in experiment [7], in experiment [8], in [9] and in experiment [10] was above 100 µM in each case.

Take `COc1cc([C@@H]2c3cc(O)c(OC)cc3C=C(C(N)=O)[C@H]2C(N)=O)ccc1O`: the TGI in experiment [1], in [2], in [3], in [4], in [5] and in experiment [6] was above 100 µM each time. Further, the TGI in [7], in [8], in [9] and in experiment [10] was above 100 µM throughout.

Regarding `CCC[C@H](C)C[C@H](C)C[C@H](C)/C=C(\C)[C@@H](O)[C@@H](C)C(=O)CC`, the TGI in experiment [1] is 37 µM; in experiment [2], 42 µM; in experiment [3], 36.4 µM; in [4] it was 38.9 µM; in experiment [5], 35.7 µM; in [6] it was 35.7 µM. The TGI in experiment [7] stood at 37 µM; in experiment [8], 34.1 µM; in experiment [9], 39.4 µM; in experiment [10], 34.4 µM.
